Patent US20090275606A1, “Heterocyclic Compounds as MEK Inhibitors” (Novartis AG, priority 2008, published 2009)

Test system: A375 cells
Assay: Cell viability assay in A375 cells (XTT)
Type: cell-based
Settings: Homo sapiens, A-375, 72 h, three days after compound addition
Experimental: The cell viability assay in A375 cells is set up in a 96-well plate format using XTT.
XTT is a yellow tetrazolium salt that is cleaved to an orange formazan dye by the mitochondria of metabolically active cells. The procedure allows for rapid determination in a microtitre plate, to give reproducible and sensitive results.
A375 cells are grown in DMEM media containing 10% FBS and 1 mM sodium pyruvate. Cells are trypsinized and seeded at 1000 cells/well. After allowing the cells to adhere overnight, compound is added to the wells at the following final concentrations: 10, 3, 1, 0.3, 0.1, 0.03, 0.01, 0.001, and 0.0001 μM. The assay is set up in triplicates for each concentration. DMSO concentrations are kept at 0.5%/well. Three days after compound addition, the XTT assay is performed. Wells are washed once with PBS. 100 μL of DMEM media without phenol red or FBS is added to each well. A working solution of XTT containing 1 mg/ml XTT and 100 μL of PMS (stock concentration 0.383 mg/ml) per 5 ml is prepared. 50 μL of the working solution of XTT is added to each well. Absorbance of the plate is read at 465 nm using a Spectramax 190 (Molecular Devices). The absorbance from wells with media and XTT alone, but without cells is considered the blank and subtracted from readings from all wells.
Percentage viability is calculated considering the blank subtracted value from wells treated with DMSO alone as 100% viable. GI50 values are calculated using Graphpad Prism, using non-linear regression curve fit for sigmoidal dose response (variable slope).
The cell viability assay is further described in Scudiero, et. al., Cancer Research (1988) 48, 4827-4833; Weislow, et. al., J. Natl. Cancer Institute, (1989) 81, 577-586; and Roehm, et. al., J. Immunol. Methods [1991]142:257-265.

GI50 [nM] | Compound
14 | O=C(NOCC1CC1)c1c(Nc2ccc(Br)cc2F)cc(=O)n2c1CCC2 [Compound 4]
150 | CONC(=O)c1c(Nc2ccc(Br)cc2F)cc(=O)n2c1CCC2 [Compound 6]
40 | CCONC(=O)c1c(Nc2ccc(Br)cc2F)cc(=O)n2c1CCC2 [Compound 10]
9 | CONC(=O)c1c(Nc2ccc(I)cc2F)cc(=O)n2c1CCC2 [Compound 41]
3.6 | CCONC(=O)c1c(Nc2ccc(I)cc2F)cc(=O)n2c1CCC2 [Compound 42]

Continued, compound first:

Compound | GI50 [nM]
O=C(NOCC1CC1)c1c(Nc2ccc(Br)cc2F)c(F)c(=O)n2c1CCC2 [Compound 20] | 55
Cc1c(Nc2ccc(Br)cc2F)c(C(=O)NOCC2CC2)c2n(c1=O)CCC2 [Compound 24] | 36
Cc1c(Nc2ccc(Br)cc2F)c(C(=O)NOCCO)c2n(c1=O)CCC2 [Compound 25] | 10
CCONC(=O)c1c(Nc2ccc(Br)cc2F)c(C)c(=O)n2c1CCC2 [Compound 27] | 60
NC(=O)c1c(Nc2ccc(I)cc2F)cc(=O)n2c1CCC2 [Compound 38] | 73
O=C(NOCC1CC1)c1c(Nc2ccc(I)cc2F)cc(=O)n2c1CCC2 [Compound 39] | 0.8
O=C(NOCCO)c1c(Nc2ccc(I)cc2F)cc(=O)n2c1CCC2 [Compound 40] | 0.7
O=C(NOCC1CC1)c1c(Nc2ccc(I)cc2F)c(F)c(=O)n2c1CCC2 [Compound 45] | 0.4
O=C(NOCCO)c1c(Nc2ccc(I)cc2F)c(F)c(=O)n2c1CCC2 [Compound 46] | 6.7
